Values quoted from earlier work, collected in PMC10323144, “Garbage in, garbage out: how reliable training data improved a virtual screening approach against SARS-CoV-2 MPro” (Frontiers in Pharmacology, 2023).
Numbered stars: 1 amine (or outer) side, 2 acyl side, 3 side chain; on linkers, the order of the positions; unused ones are H or OH. Bridge positions count the residues as written; N and C are the ends. Square brackets hold non-standard residues; d marks the D form. Peptide text beside a SMILES is read from it. * marks the point of attachment. hTyr(3S-OH,4S-OH,3'-OSO3H) = N[C@H](C(=O)O)[C@H](O)[C@@H](O)c1ccc(O)c(OS(=O)(=O)O)c1; Orn(4R-OH,5R-OH) = O=C([C@H](C[C@@H](O)[C@@H](O)N[*:3])N[*:1])[*:2]; Pro(3S-OH,4S-Me) = C[C@H]1CN[C@H](C(=O)O)[C@H]1O; X1 = CCCCCOc1ccc(-c2cc(-c3ccc(C(=O)*)cc3)no2)cc1; Gln(3R-OH) = NC(=O)C[C@@H](O)[C@H](N)C(=O)O; Hyp = O=C(O)[C@@H]1C[C@@H](O)CN1

System: MPro
Conditions: compiled from peer-reviewed sources (287 compounds) ref the 18 original articles; cited from earlier work

Row | Molecule | Class (MPro activity class)
1 | COc1cccc(N2CCN(C(=O)c3cc(=O)[nH]c4ccccc34)CC2)c1 [BEN-DND-7e92b6ca-12] | 1 (Compounds with IC50 < 10 µM or with a percentage of enzyme inhibition >50% at 10 µM were labelled as ACTIVE)
2 | C#Cc1cccc(Nc2ncnc3cc(OCCOC)c(OCCOC)cc23)c1 [ERLOTINIB] | 0 (compounds with IC50 > 20 μM, percentage inhibition <80% at 20 µM or 50 μM, or percentage enzyme inhibition <50% at 10 µM were labelled as INACTIVE)
3 | O=c1[nH]cc(-c2cc(-c3cc(Cl)cc(OCc4ccccc4Cl)c3)c(=O)n(-c3cccnc3)c2)c(=O)[nH]1 [compound 21] | 1 (Compounds with IC50 < 10 µM or with a percentage of enzyme inhibition >50% at 10 µM were labelled as ACTIVE)
4 | O=C(CNc1c(-c2ccccc2)nc2ccccn12)NN=Cc1cccc2ccccc12 [LASSBio-1615 (11)] | 0 (compounds with IC50 > 20 μM, percentage inhibition <80% at 20 µM or 50 μM, or percentage enzyme inhibition <50% at 10 µM were labelled as INACTIVE)
5 | O=C(Cc1cccc(Cl)c1)Nn1cnc2ccccc21 [JAN-GHE-5a013bed-2] | 1 (Compounds with IC50 < 10 µM or with a percentage of enzyme inhibition >50% at 10 µM were labelled as ACTIVE)
6 | CS(=O)(=O)c1ncc(Cl)c(C(=O)Nc2ccccc2Cc2ccccc2)n1 [LON-WEI-ff7b210a-4] | 1 (Compounds with IC50 < 10 µM or with a percentage of enzyme inhibition >50% at 10 µM were labelled as ACTIVE)
7 | Cc1ccc(NC(=O)Cc2cccc(Cl)c2)cn1 [EDG-MED0da5ad92-13] | 0 (compounds with IC50 > 20 μM, percentage inhibition <80% at 20 µM or 50 μM, or percentage enzyme inhibition <50% at 10 µM were labelled as INACTIVE)
8 | CCOC(=O)c1c(CSc2ccccc2)n(C)c2cc(Br)c(O)c(CN(C)C)c12 [Umifenovir] | 0 (compounds with IC50 > 20 μM, percentage inhibition <80% at 20 µM or 50 μM, or percentage enzyme inhibition <50% at 10 µM were labelled as INACTIVE)
9 | CO[C@@H]1[C@H](OC(=O)/C=C/C=C/C=C/C=C/C(=O)O)CC[C@]2(CO2)[C@H]1[C@@]1(C)O[C@@H]1CC=C(C)C [Fumagillin] | 0 (compounds with IC50 > 20 μM, percentage inhibition <80% at 20 µM or 50 μM, or percentage enzyme inhibition <50% at 10 µM were labelled as INACTIVE)
10 | CCC(C)SSc1ncc[nH]1 (stereo not shown) [PX-12] | 0 (compounds with IC50 > 20 μM, percentage inhibition <80% at 20 µM or 50 μM, or percentage enzyme inhibition <50% at 10 µM were labelled as INACTIVE)
11 | COc1cc(CN2CCN(C(=O)CCl)CC2)c2ccccc2c1 [DAR-DIA-fb20be43-7] | 1 (Compounds with IC50 < 10 µM or with a percentage of enzyme inhibition >50% at 10 µM were labelled as ACTIVE)
12 | Cc1cc(C#N)cc(C)c1Oc1nc(Nc2ccc(C#N)cc2)nc(N)c1Br [Etravirine] | 0 (compounds with IC50 > 20 μM, percentage inhibition <80% at 20 µM or 50 μM, or percentage enzyme inhibition <50% at 10 µM were labelled as INACTIVE)
13 | C[C@H]1C[C@@H]2[C@H]([C@@H](O)C[C@@]3(C)[C@H]2CC[C@]3(O)C(=O)CO)[C@@]2(C)C=CC(=O)C=C12 [methylprednisolone] | 0 (compounds with IC50 > 20 μM, percentage inhibition <80% at 20 µM or 50 μM, or percentage enzyme inhibition <50% at 10 µM were labelled as INACTIVE)
14 | CC(C)CCNC(=O)C(CC(C)C)NC(=O)C1OC1C(=O)O (stereo not shown) [Loxistatin Acid] | 0 (compounds with IC50 > 20 μM, percentage inhibition <80% at 20 µM or 50 μM, or percentage enzyme inhibition <50% at 10 µM were labelled as INACTIVE)
15 | O=c1[nH]cc(-c2cc(-c3cc(Cl)cc(OCCc4ccccc4)c3)c(=O)n(-c3cccnc3)c2)c(=O)[nH]1 [compound 15] | 1 (Compounds with IC50 < 10 µM or with a percentage of enzyme inhibition >50% at 10 µM were labelled as ACTIVE)
16 | O=c1cc(-c2ccccc2)oc2cc(O)c(O)c(O)c12 [Baicalein] | 1 (Compounds with IC50 < 10 µM or with a percentage of enzyme inhibition >50% at 10 µM were labelled as ACTIVE)
17 | CC(C)(C(=O)NCC(F)(F)C(F)(F)F)C(=O)N[C@@H]1C(=O)Nc2ccccc2-c2ccccc21 [RO4929097] | 0 (compounds with IC50 > 20 μM, percentage inhibition <80% at 20 µM or 50 μM, or percentage enzyme inhibition <50% at 10 µM were labelled as INACTIVE)
18 | O=C(O)C1OC(Oc2cc(O)c3c(=O)cc(-c4ccccc4)oc3c2)C(O)C(O)C1O [Chrysin-7-O-β-D-glucoronide] | 0 (compounds with IC50 > 20 μM, percentage inhibition <80% at 20 µM or 50 μM, or percentage enzyme inhibition <50% at 10 µM were labelled as INACTIVE)
19 | O=C(CCl)N1CCN(S(=O)(=O)c2c(F)cccc2F)CC1 [LON-WEI-8f408cad-2] | 1 (Compounds with IC50 < 10 µM or with a percentage of enzyme inhibition >50% at 10 µM were labelled as ACTIVE)
20 | CCCCCOc1ccc(-c2cc(-c3ccc(C(=O)N[C@H]4C[C@@H](O)[C@@H](O)NC(=O)[C@@H]5[C@@H](O)[C@@H](C)CN5C(=O)[C@H]([C@H](O)CC(N)=O)NC(=O)[C@H]([C@H](O)[C@@H](O)c5ccc(O)c(OS(=O)(=O)O)c5)NC(=O)[C@@H]5C[C@@H](O)CN5C(=O)[C@H]([C@@H](C)O)NC4=O)cc3)no2)cc1 [Micafungin] (X1-[Orn(4R-OH,5R-OH)]T[Hyp][hTyr(3S-OH,4S-OH,3'-OSO3H)][Gln(3R-OH)][Pro(3S-OH,4S-Me)]; lactam 1-C) | 0 (compounds with IC50 > 20 μM, percentage inhibition <80% at 20 µM or 50 μM, or percentage enzyme inhibition <50% at 10 µM were labelled as INACTIVE)

Row | Molecule | Class (MPro activity class)
21 | COc1c(OC2OC(C(=O)O)C(O)C(O)C2O)cc2oc(-c3ccccc3)cc(=O)c2c1O [Oroxylin A-7-O-β-D-glucuronide] | 0 (compounds with IC50 > 20 μM, percentage inhibition <80% at 20 µM or 50 μM, or percentage enzyme inhibition <50% at 10 µM were labelled as INACTIVE)
22 | C=C(CC)C(=O)c1ccc(OCC(=O)O)c(Cl)c1Cl [ethacrynic acid] | 0 (compounds with IC50 > 20 μM, percentage inhibition <80% at 20 µM or 50 μM, or percentage enzyme inhibition <50% at 10 µM were labelled as INACTIVE)
23 | CCOC(=O)[C@H]1O[C@@H]1C(=O)N[C@@H](CC(C)C)C(=O)NCCC(C)C [Aloxistatin] | 0 (compounds with IC50 > 20 μM, percentage inhibition <80% at 20 µM or 50 μM, or percentage enzyme inhibition <50% at 10 µM were labelled as INACTIVE)
24 | Disulfiram | 1 (Compounds with IC50 < 10 µM or with a percentage of enzyme inhibition >50% at 10 µM were labelled as ACTIVE)
25 | CCn1c(=O)c(-c2cc[nH]n2)cc2c(C)nc(N)nc21 [VOXTALISIB] | 0 (compounds with IC50 > 20 μM, percentage inhibition <80% at 20 µM or 50 μM, or percentage enzyme inhibition <50% at 10 µM were labelled as INACTIVE)
26 | Cc1cc(Cl)cc(CC2CCN(C(=O)CCl)CC2)c1 [NIR-THE-0d6461ce-8] | 1 (Compounds with IC50 < 10 µM or with a percentage of enzyme inhibition >50% at 10 µM were labelled as ACTIVE)
27 | CC(O)(CS(=O)(=O)c1ccc(F)cc1)C(=O)Nc1ccc(C#N)c(C(F)(F)F)c1 (stereo not shown) [Bicalutamide] | 0 (compounds with IC50 > 20 μM, percentage inhibition <80% at 20 µM or 50 μM, or percentage enzyme inhibition <50% at 10 µM were labelled as INACTIVE)
28 | O=C(CCl)N1CCN(Cc2cccc3ccccc23)CC1 [MED-COV-4280ac29-31] | 1 (Compounds with IC50 < 10 µM or with a percentage of enzyme inhibition >50% at 10 µM were labelled as ACTIVE)
29 | CN1C(=O)C(=NNC(=O)c2ccc3c(c2)OCO3)c2ccccc21 [LASSBio-1652 (16)] | 0 (compounds with IC50 > 20 μM, percentage inhibition <80% at 20 µM or 50 μM, or percentage enzyme inhibition <50% at 10 µM were labelled as INACTIVE)
30 | Maraviroc | 0 (compounds with IC50 > 20 μM, percentage inhibition <80% at 20 µM or 50 μM, or percentage enzyme inhibition <50% at 10 µM were labelled as INACTIVE)
31 | Cc1ncccc1NC(=O)Cc1cccc(Cl)c1 [EDG-MED0da5ad92-14] | 0 (compounds with IC50 > 20 μM, percentage inhibition <80% at 20 µM or 50 μM, or percentage enzyme inhibition <50% at 10 µM were labelled as INACTIVE)
32 | O=C(NN=Cc1c[nH]cn1)C1CCCCC1 [LASSBio-1600 (15)] | 0 (compounds with IC50 > 20 μM, percentage inhibition <80% at 20 µM or 50 μM, or percentage enzyme inhibition <50% at 10 µM were labelled as INACTIVE)
33 | O=C(Nc1ccccc1)Nc1cnc2ccc([N+](=O)[O-])cc2n1 [LASSBio-1962 (8)] | 0 (compounds with IC50 > 20 μM, percentage inhibition <80% at 20 µM or 50 μM, or percentage enzyme inhibition <50% at 10 µM were labelled as INACTIVE)
34 | CC(=O)ON=C1C(=O)N(Cc2cc(Cl)ccc2Cl)c2ccc(Cl)cc21 [LDN-57444] | 0 (compounds with IC50 > 20 μM, percentage inhibition <80% at 20 µM or 50 μM, or percentage enzyme inhibition <50% at 10 µM were labelled as INACTIVE)
35 | CC1OC(OCC2OC(OCCc3ccc(O)c(O)c3)C(O)C(OC(=O)C=Cc3ccc(O)c(O)c3)C2O)C(O)C(O)C1O (stereo not shown) [Forsythoside I] | 1 (Compounds with IC50 < 10 µM or with a percentage of enzyme inhibition >50% at 10 µM were labelled as ACTIVE)
36 | Cc1ccncc1NC(=O)Cc1cccc(Br)c1 [JAN-GHE-83b26c96-12] | 0 (compounds with IC50 > 20 μM, percentage inhibition <80% at 20 µM or 50 μM, or percentage enzyme inhibition <50% at 10 µM were labelled as INACTIVE)
37 | C=CC(=O)N(c1ccc(C(C)(C)C)cc1)C(C(=O)NCCc1cccc(F)c1)c1cncc(C#N)c1 (stereo not shown) [LON-WEI-babf2c61-3] | 1 (Compounds with IC50 < 10 µM or with a percentage of enzyme inhibition >50% at 10 µM were labelled as ACTIVE)
38 | CC(NC(=O)CCl)c1cc(Cl)cc(-c2ccc(S(N)(=O)=O)cc2)c1 (stereo not shown) [DAV-CRI-14a23e73-1] | 1 (Compounds with IC50 < 10 µM or with a percentage of enzyme inhibition >50% at 10 µM were labelled as ACTIVE)
39 | O=C(c1cc(=O)[nH]c2ccccc12)N1CCN(Cc2ccccc2)CC1 [BEN-DND-7e92b6ca-10] | 1 (Compounds with IC50 < 10 µM or with a percentage of enzyme inhibition >50% at 10 µM were labelled as ACTIVE)
40 | COc1cc(Cl)cc(-c2cc(-c3c[nH]c(=O)[nH]c3=O)cn(-c3cccnc3)c2=O)c1 [compound 10] | 1 (Compounds with IC50 < 10 µM or with a percentage of enzyme inhibition >50% at 10 µM were labelled as ACTIVE)
